Values quoted from earlier work, collected in publication PMC7992119 (Structure (London, England : 1993), 2019).
Where no end group is shown, it is not given here. The star is where a group is joined. Octanoyl = CCCCCCCC(=O)*

What was measured:
[1] = test system: GHSR; conditions: ref Bednarek et al., 2000
[2] = test system: ET-B; conditions: mutation of known crystal contacts; ref Shihoya et al., 2016
[3] = test system: GHSR

Q: Which “activity at GHSR of des-acyl versus lipidated form” value [1] does the source give for des-acyl ghrelin here?
A: only the lipidated form is active at GHSR

Q: Which “maximal decrease of binding” value [2] does the source give for endothelin-1 here?
A: ≤ 10 fold

Q: With “ghrelin: 28-amino acid peptide with n-octanoylation at its Ser^3 residue (GSS(Octanoyl)FLSPEHQRVQQRKESKKPPAKLQPR; UniProt Q9UBU3 24-51, looked up)” as the substance, how does the “affinity of the C terminus for the receptor” value ([3]; C terminus of ghrelin (beyond residue 17), ref Bednarek et al., 2000) read?
A: the C terminus has no affinity for the receptor and does not enhance ligand binding over truncated variants

Q: And the “affinity to GHSR versus the membrane” value ([3]; qualitative statement, no reference given)?
A: much higher than to the membrane
